The values below come from BindingDB's records for doi:10.1016/j.bmcl.2015.05.100 (Eli Lilly, 2015).

For test [1], the target named is Cyclin-dependent kinase 4 (Homo sapiens, UniProt P11802). Description: Inhibition of CDK4 (unknown origin) using GST-fused pRb (792 to 928) as substrate preincubated for 2 mins followed by [gamma-32P]-ATP addition measured after 15 mins by beta plate counting analysis.
Test [2] has as its target Cyclin-dependent kinase 2 (Homo sapiens, UniProt P24941). Kind of test: Inhibition of CDK2 (unknown origin) using GST-fused pRb (792 to 928) as substrate preincubated for 2 mins followed by [gamma-32P]-ATP addition measured after 15 mins by beta plate counting analysis.

Sequence of Cyclin-dependent kinase 4 (P11802 whole entry, the tested form may be a part): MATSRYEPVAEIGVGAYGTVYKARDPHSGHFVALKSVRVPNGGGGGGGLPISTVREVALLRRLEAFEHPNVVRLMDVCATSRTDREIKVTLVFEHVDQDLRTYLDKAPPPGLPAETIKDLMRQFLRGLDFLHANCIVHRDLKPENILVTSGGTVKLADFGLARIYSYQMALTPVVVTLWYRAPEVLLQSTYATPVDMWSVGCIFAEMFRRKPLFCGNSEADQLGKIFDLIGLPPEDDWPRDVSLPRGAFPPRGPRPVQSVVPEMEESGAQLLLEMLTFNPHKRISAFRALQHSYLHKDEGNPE

Regarding `O=c1c(Br)cc2cnc(Nc3ccc(N4CCNCC4)cc3)nc2n1C1CCCC1`, the figures for the IC50 in test [1] and in test [2] were 0.002 µM and 0.043 µM, respectively. In test [2], `Cc1c(Br)c(=O)n(C2CCCC2)c2nc(Nc3ccc(N4CCNCC4)cc3)ncc12` [6-bromo-8-cyclopentyl-5-methyl-2-{[4-(piperazin-1-yl)phenyl]amino}-7H,8H-pyrido[2,3-d]pyrimidin-7-one] showed an IC50 of 0.439 µM. `CC(=O)c1c(C)c2cnc(Nc3ccc(N4CCNCC4)cc3)nc2n(C2CCCC2)c1=O` [8-cyclopentyl-6-acetyl-5-methyl-2-{[4-(piperazin-1-yl)phenyl]amino}-7H,8H-pyrido[2,3-d]pyrimidin-7-one] yielded an IC50 in test [1] of 0.002 µM.

The IC50 is the concentration that gives 50% inhibition. Read a low IC50 as greater potency in that assay.
